Assay results taken from paper PMC9737349, “Discovery of 5-Methylthiazole-Thiazolidinone Conjugates as Potential Anti-Inflammatory Agents: Molecular Target Identification and In Silico Studies” (Molecules, 2022).
Values belong to the molecule of their own block, whether it stands above or below them.

Tests used:
[1] = system: carrageenan-induced mouse paw edema; experiment: Carrageenan-induced mouse paw oedema; type: in vivo; conditions: mice, i.p. 0.15 mmol/kg 5 min before carrageenan, paw weight increase after 3.5 h; for inhibition in vivo at 150 µmol/kg: Mus musculus, ip
Method: For the study of possible anti-inflammatory action, the swelling caused in the sole of the right hind limb by intradermal administration of carrageenan was used as a model of inflammation. Carrageenan-induced edema is a non-specific inflammation that results from a number of different transmitters and resembles human acute inflammation.
The animals were weighed and divided into control, standard and test groups. Each group contained 10 mice. […] An aqueous solution of carrageenan 0.1 mL, 1% w/v) was injected subcutaneously to the sub-plantar region of the right hind paw, with the left paw as control. The tested compounds (suspended in water with a few drops of Tween 80) were given i.p. (0.15 mmol/kg) 5 min before the carrageenan administration. After 3.5 h, the hind paws were excised and were weighed separately. The produced oedema was estimated as a paw weight increase.

[2] = molecular target: T1, soybean LOX (Glycine max, UniProt P08170); experiment: Inhibition of LOX activity; type: biochemical
T1 construct: purchased Sigma (St. Louis, MO, USA)
T1 sequence (P08170 1-839): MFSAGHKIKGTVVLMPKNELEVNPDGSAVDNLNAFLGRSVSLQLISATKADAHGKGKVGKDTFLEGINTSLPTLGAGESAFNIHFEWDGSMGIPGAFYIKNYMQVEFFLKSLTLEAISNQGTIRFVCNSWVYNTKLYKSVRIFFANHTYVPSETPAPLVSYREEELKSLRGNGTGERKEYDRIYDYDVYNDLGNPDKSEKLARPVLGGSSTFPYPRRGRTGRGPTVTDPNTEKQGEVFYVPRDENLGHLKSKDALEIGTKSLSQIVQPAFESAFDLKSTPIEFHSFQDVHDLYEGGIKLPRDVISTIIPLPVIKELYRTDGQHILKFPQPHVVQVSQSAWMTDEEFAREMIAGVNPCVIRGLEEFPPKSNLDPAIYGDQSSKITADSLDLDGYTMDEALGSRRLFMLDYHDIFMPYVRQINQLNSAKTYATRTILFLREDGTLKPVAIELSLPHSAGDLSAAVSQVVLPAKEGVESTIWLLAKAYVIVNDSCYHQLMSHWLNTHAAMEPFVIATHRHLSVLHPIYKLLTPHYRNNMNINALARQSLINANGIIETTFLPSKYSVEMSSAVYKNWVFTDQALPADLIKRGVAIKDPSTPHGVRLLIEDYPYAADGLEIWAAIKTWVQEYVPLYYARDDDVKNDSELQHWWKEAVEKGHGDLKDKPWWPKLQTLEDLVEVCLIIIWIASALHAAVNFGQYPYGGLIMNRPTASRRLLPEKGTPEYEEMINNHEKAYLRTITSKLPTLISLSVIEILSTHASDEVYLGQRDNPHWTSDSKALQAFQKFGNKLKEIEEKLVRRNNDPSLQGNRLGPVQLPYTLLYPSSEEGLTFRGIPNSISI
Method: The reaction mixture contained (final concentration 300 μM) the test compounds, dissolved in absolute ethanol (10–300 μM), or the solvent (control), soybean LOX, dissolved in 0.9% NaCl solution (250 u/mL) and sodium linoleate (100 μM), in Tris-HCl buffer, pH 9.0. The reaction was followed for 7 min at 28 °C, recording the absorbance (234 nm) of a conjugated diene structure, due to the formation of 13-hydroperoxy-linoleic acid. […] For the estimation of the type of inhibition, the above experiments were repeated, using 1 mM sodium linoleate, which is higher than the saturating substrate concentration.

[3] = molecular target: T2, human recombinant COX-2 (Homo sapiens, UniProt P35354); experiment: Inhibition of COX-2 activity (Cayman COX Inhibitor Screening Assay kit); type: biochemical; conditions: read-out: Inhibition, COX-2, Inhibition (%) 200 μM
T2 construct: purchased Cayman Chemical Co., Ann Arbor, MI
T2 sequence (P35354 18-604): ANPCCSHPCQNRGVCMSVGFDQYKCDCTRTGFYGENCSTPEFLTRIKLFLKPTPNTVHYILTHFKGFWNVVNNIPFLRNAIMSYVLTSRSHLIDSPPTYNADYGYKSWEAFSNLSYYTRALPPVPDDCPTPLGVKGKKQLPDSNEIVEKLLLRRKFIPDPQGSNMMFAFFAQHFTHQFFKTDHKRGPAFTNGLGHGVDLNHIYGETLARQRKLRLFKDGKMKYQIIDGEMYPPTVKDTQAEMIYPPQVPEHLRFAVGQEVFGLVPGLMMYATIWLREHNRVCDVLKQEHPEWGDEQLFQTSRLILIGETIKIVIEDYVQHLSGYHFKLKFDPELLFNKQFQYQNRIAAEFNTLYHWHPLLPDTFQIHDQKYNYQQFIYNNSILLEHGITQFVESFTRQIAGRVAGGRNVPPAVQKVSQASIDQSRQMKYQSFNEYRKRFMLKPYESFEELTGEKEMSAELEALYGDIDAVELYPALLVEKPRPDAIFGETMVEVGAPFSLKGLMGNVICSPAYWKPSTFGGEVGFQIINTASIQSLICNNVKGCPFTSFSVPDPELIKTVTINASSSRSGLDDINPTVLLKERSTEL
Method: (§1) The effect of compounds on COX-1 and COX-2 inhibition was measured using a commercial kit provided by Cayman (Cayman Chemical Co., Ann Arbor, MI), applying the instructions of the manufacturer. The kit uses ovine COX-1 and human recombinant COX-2 enzymes. […] The assay measures PGF2a produced by SnCl2 reduction of COX-derived PGH2.

[4] = molecular target: T3, ovine COX-1 (Ovis aries, UniProt P05979); experiment: Inhibition of COX-1 activity (Cayman COX Inhibitor Screening Assay kit); type: biochemical
T3 construct: purchased Cayman Chemical Co., Ann Arbor, MI
T3 sequence (P05979 25-600): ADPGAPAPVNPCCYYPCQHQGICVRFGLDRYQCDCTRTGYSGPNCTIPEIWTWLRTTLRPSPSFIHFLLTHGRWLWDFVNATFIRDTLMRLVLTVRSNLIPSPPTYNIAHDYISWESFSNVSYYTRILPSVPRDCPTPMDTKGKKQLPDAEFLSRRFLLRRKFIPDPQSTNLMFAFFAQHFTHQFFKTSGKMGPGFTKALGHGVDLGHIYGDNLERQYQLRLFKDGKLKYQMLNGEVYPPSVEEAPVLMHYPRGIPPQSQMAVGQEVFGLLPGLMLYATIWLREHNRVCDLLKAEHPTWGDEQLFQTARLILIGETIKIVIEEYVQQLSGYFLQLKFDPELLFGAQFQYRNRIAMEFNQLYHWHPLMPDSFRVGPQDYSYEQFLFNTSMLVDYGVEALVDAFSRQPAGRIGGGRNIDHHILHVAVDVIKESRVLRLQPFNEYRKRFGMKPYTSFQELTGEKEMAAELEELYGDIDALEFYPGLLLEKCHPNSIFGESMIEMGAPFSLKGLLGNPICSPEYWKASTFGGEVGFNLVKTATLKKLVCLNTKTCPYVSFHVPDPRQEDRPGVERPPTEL
Method: as §1

Structure (SMILES): Cc1cnc(N=C2NC(=O)C(=Cc3ccccc3)S2)s1 [Compound 1]
inhibition in vivo at 150 µmol/kg [1]: 51.6 ± 1.5%

Structure (SMILES): Cc1cnc(N=C2NC(=O)C(=Cc3ccccc3O)S2)s1 [Compound 2]
inhibition in vivo at 150 µmol/kg [1]: 43.1 ± 1.9%

Structure (SMILES): Cc1cnc(N=C2NC(=O)C(=Cc3ccc(O)cc3)S2)s1 [Compound 3]
inhibition in vivo at 150 µmol/kg [1]: 31.4% | Oedema Inhibition (%) [1]: 31.4 ± 2.3 %

Structure (SMILES): COc1ccc(C=C2SC(=Nc3ncc(C)s3)NC2=O)cc1 [Compound 4]
inhibition in vivo at 150 µmol/kg [1]: 48.3 ± 1.8%

Structure (SMILES): COc1ccc(OC)c(C=C2SC(=Nc3ncc(C)s3)NC2=O)c1 [Compound 5]
inhibition in vivo at 150 µmol/kg [1]: 44.9 ± 1.7%

Structure (SMILES): Cc1cnc(N=C2NC(=O)C(=Cc3ccccc3[N+](=O)[O-])S2)s1 [Compound 6]
inhibition in vivo at 150 µmol/kg [1]: 48.7 ± 1.8%

Structure (SMILES): Cc1cnc(N=C2NC(=O)C(=Cc3cccc([N+](=O)[O-])c3)S2)s1 [Compound 7]
inhibition in vivo at 150 µmol/kg [1]: 54.5 ± 1.4%

inhibition at 100 µM [2]: 7.88 ± 2.1% | inhibition at 200 µM [3]: 0% | IC50 [4]: 14.4 ± 0.7 µM | inhibition at 200 µM [4]: 100%
Structure (SMILES): Cc1cnc(N=C2NC(=O)C(=Cc3ccc([N+](=O)[O-])cc3)S2)s1 [Compound 8]
inhibition in vivo at 150 µmol/kg [1]: 55.4% | Oedema Inhibition (%) [1]: 55.4 ± 1.5 %

Structure (SMILES): Cc1cnc(N=C2NC(=O)C(=Cc3cccc(F)c3)S2)s1 [Compound 9]
inhibition in vivo at 150 µmol/kg [1]: 34.8 ± 2.1%

Structure (SMILES): Cc1cnc(N=C2NC(=O)C(=Cc3ccc(F)cc3)S2)s1 [Compound 10]
inhibition in vivo at 150 µmol/kg [1]: 47.8 ± 1.6%

Structure (SMILES): Cc1cnc(N=C2NC(=O)C(=Cc3ccccc3Cl)S2)s1 [Compound 11]
inhibition in vivo at 150 µmol/kg [1]: 43 ± 1.7%

Structure (SMILES): Cc1cnc(N=C2NC(=O)C(=Cc3ccc(Cl)cc3)S2)s1 [Compound 12]
inhibition in vivo at 150 µmol/kg [1]: 55.6% | Oedema Inhibition (%) [1]: 55.6 ± 1.5 %

inhibition at 100 µM [2]: 37.2 ± 1.8% | inhibition at 200 µM [3]: 0% | IC50 [4]: 1.1 ± 0.3 µM | inhibition at 200 µM [4]: 100%
Structure (SMILES): Cc1cnc(N=C2NC(=O)C(=Cc3cccc(Cl)c3Cl)S2)s1 [Compound 13]
inhibition in vivo at 150 µmol/kg [1]: 57.8% | Oedema Inhibition (%) [1]: 57.8 ± 1.3 %

Structure (SMILES): Cc1cnc(N=C2NC(=O)C(=Cc3ccc(Cl)cc3Cl)S2)s1 [Compound 14]
inhibition in vivo at 150 µmol/kg [1]: 35.2 ± 2.1%

Structure (SMILES): Cc1cnc(N=C2NC(=O)C(=Cc3c(Cl)cccc3Cl)S2)s1 [Compound 15]
inhibition in vivo at 150 µmol/kg [1]: 39.4 ± 2.3%

inhibition at 100 µM [2]: 46.7 ± 1.5% | inhibition at 200 µM [3]: 0% | IC50 [4]: 1.08 ± 0.3 µM | inhibition at 200 µM [4]: 100%
Structure (SMILES): Cc1cnc(N=C2NC(=O)C(=Cc3cccc(Br)c3)S2)s1 [Compound 16]
inhibition in vivo at 150 µmol/kg [1]: 57.6% | Oedema Inhibition (%) [1]: 57.6 ± 1.4 %

Structure (SMILES): Cc1cnc(N=C2NC(=O)C(=Cc3ccc(Br)cc3)S2)s1 [Compound 17]
inhibition in vivo at 150 µmol/kg [1]: 41.4 ± 1.9%

Structure (SMILES): COc1ccc2cc([C@H](C)C(=O)O)ccc2c1 [Naproxen, reference compound]
inhibition at 200 µM [3]: 17 ± 2.3%
